In patent publication EP0472783A1, “Anti-tumor compositions and compounds” (PHARMACHEMIE B.V., priority 1990, dated 1992):

How the values were obtained:
Type in all cases: cell-based, human
[1] = system: A 204 rhabdomyosarcoma (A cells); assay: PIT method in vitro cell growth inhibition, A 204; details: amount which inhibits 50% of the cell growth; A 204 cells
Method: (§1) The tests were carried out according to the method of R.van Lambalgen en P. Lelieveld, The PIT method: an automated in vitro technique for drug toxicity testing. Invest.
(§2) The ID50 values in ng/ml for the above compounds were determined according to the above mentioned procedure of van Lambalgen and Lelieveld.

[2] = system: IgR-37 melanoma (Z cells); assay: PIT method in vitro cell growth inhibition, IgR-37; details: amount which inhibits 50% of the cell growth; IgR-37 cells
Method: as §1, §2

[3] = system: WiDr colon tumor cells (W cells); assay: PIT method in vitro cell growth inhibition, WiDr; details: amount which inhibits 50% of the cell growth
Method: as §1, §2

[4] = system: T24 bladder carcinoma (T cells); assay: PIT method in vitro cell growth inhibition, T24; details: amount which inhibits 50% of the cell growth
Method: as §1, §2

[5] = system: MCF-7 mammary carcinoma (M cells); assay: PIT method in vitro cell growth inhibition, MCF-7; details: amount which inhibits 50% of the cell growth; MCF-7 cells
Method: as §1, §2

N.N.[Cl][Pt][Cl] [cis platium, cis-(NH3)2PtCl2] was tested, and the “ID50 values in ng/ml A 204” value [1] was 871 ng/mL, the “ID50 values in ng/ml IgR-37” value [2] was 878 ng/mL and the “ID50 values in ng/ml WiDr” value [3] was 624 ng/mL. For the same compound, the “ID50 values in ng/ml T24” value [4] was 268 ng/mL and the “ID50 values in ng/ml MCF-7” value [5] was 850 ng/mL.
